One block for each compound: values may come before it.
What was measured:
[1] = target: Ephrin type-A receptor 5 (Homo sapiens) (UniProt P54756); assay: Selectivity interaction (KinomeScan (DiscoverX)) EUB0000595a EPHA5; conditions: at 10 µM
[2] = target: T1, cAMP-dependent protein kinase catalytic subunit PRKX (Homo sapiens) (UniProt P51817); conditions: at 10 µM
T1 sequence (whole entry): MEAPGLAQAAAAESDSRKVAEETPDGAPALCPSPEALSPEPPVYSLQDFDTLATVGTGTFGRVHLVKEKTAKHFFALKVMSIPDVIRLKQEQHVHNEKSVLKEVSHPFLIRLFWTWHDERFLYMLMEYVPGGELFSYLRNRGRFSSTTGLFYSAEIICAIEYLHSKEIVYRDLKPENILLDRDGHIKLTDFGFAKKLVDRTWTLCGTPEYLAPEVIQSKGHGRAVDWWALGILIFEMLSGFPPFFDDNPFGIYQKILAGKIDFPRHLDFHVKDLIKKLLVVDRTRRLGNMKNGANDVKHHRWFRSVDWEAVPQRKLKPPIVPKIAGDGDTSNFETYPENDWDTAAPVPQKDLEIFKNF

[3] = target: T2, Protein arginine N-methyltransferase 9 (Homo sapiens, UniProt Q6P2P2); assay: Selectivity interaction (Scintillation proximity assays) EUB0000230b PRMT9
T2 sequence (Q6P2P2 whole entry): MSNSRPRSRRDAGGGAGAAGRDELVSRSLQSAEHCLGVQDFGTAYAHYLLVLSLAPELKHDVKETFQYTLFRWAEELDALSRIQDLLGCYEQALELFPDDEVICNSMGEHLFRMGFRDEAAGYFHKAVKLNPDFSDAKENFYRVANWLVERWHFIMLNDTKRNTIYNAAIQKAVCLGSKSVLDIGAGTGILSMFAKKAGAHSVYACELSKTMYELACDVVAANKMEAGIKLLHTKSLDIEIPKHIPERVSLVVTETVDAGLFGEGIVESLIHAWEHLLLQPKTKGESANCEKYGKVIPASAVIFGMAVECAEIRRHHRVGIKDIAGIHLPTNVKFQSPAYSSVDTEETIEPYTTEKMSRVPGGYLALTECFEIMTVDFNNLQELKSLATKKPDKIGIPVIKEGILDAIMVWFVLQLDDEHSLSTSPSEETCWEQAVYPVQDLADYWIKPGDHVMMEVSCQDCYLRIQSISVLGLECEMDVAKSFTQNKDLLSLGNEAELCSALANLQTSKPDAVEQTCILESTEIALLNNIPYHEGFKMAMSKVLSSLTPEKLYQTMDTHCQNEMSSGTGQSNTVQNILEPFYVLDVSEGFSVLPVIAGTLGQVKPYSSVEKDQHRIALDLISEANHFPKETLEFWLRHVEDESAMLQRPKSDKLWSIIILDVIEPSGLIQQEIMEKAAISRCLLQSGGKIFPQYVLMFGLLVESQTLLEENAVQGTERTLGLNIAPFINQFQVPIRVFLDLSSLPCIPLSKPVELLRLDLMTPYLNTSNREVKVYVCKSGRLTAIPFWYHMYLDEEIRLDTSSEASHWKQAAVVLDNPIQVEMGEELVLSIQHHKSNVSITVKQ

[4] = target: Serine/threonine-protein kinase Chk2 (Homo sapiens) (UniProt O96017); assay: Selectivity interaction (KinomeScan (DiscoverX)) EUB0000045b CHEK2
Serine/threonine-protein kinase Chk2 (Homo sapiens), sequence (O96017 whole entry): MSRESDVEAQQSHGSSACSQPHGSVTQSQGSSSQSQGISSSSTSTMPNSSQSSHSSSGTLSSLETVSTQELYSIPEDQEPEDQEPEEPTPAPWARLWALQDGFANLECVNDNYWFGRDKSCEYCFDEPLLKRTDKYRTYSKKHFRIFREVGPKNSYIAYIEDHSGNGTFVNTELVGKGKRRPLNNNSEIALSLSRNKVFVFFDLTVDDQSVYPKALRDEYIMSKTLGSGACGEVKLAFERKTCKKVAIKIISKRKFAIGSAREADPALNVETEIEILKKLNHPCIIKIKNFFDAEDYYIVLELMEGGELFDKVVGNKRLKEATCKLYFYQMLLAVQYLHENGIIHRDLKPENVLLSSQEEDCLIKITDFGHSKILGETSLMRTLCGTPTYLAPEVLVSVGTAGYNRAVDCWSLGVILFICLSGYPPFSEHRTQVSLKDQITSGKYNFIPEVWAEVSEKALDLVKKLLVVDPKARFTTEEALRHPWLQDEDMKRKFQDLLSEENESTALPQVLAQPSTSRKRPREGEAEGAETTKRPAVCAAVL

[5] = target: Bromodomain-containing protein 4 (Homo sapiens, UniProt O60885); assay: Selectivity interaction (AlphaScreen binding assay) EUB0001632a BRD4
[6] = target: Tyrosine-protein kinase JAK1 (Homo sapiens, UniProt P23458); assay: Selectivity interaction (Kinase panel (33PanQinase(R) Activity Assay)) EUB0000877a JAK1
[7] = tested on: Epidermal growth factor receptor (Homo sapiens), P00533 [UNDEFINED MUTATION]; assay: Selectivity interaction (ProQinase) EUB0000171b EGFR; conditions: at 5 µM
Epidermal growth factor receptor (Homo sapiens), P00533 [UNDEFINED MUTATION], sequence (P00533 whole entry, looked up, change not shown): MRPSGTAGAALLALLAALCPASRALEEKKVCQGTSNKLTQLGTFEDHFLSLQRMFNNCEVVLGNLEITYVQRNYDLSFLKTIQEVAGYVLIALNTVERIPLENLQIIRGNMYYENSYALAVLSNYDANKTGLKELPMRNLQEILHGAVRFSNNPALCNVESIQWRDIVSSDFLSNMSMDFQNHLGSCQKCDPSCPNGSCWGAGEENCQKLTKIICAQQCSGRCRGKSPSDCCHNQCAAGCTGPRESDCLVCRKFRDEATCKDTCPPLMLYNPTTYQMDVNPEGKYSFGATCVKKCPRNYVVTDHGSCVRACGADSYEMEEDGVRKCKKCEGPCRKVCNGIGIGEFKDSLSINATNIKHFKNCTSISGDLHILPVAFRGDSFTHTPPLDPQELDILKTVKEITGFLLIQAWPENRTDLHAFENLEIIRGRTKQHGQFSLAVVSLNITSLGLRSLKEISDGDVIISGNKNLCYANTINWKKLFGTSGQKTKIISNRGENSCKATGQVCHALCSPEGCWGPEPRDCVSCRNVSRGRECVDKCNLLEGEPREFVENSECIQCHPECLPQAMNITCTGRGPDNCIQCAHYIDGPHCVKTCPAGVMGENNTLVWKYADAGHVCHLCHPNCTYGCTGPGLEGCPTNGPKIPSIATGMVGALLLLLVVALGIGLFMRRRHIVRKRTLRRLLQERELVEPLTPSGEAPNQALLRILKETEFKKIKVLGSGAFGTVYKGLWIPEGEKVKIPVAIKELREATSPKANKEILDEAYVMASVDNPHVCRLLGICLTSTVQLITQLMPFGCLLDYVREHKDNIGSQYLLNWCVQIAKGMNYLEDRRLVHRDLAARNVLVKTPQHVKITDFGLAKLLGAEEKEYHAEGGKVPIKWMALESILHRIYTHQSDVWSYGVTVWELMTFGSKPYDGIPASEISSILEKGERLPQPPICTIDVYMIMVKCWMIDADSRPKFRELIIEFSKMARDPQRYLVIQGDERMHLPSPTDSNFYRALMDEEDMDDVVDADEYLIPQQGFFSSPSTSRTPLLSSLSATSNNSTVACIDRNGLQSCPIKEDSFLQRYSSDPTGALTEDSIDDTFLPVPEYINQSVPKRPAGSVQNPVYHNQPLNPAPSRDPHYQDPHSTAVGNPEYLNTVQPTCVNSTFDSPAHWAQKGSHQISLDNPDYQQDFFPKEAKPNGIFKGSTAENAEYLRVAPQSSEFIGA

[8] = target: Ribosomal protein S6 kinase beta-1 (Homo sapiens, UniProt P23443); assay: Selectivity interaction (ProQinase) EUB0000171b RPS6KB1
Ribosomal protein S6 kinase beta-1, sequence (P23443 whole entry, looked up): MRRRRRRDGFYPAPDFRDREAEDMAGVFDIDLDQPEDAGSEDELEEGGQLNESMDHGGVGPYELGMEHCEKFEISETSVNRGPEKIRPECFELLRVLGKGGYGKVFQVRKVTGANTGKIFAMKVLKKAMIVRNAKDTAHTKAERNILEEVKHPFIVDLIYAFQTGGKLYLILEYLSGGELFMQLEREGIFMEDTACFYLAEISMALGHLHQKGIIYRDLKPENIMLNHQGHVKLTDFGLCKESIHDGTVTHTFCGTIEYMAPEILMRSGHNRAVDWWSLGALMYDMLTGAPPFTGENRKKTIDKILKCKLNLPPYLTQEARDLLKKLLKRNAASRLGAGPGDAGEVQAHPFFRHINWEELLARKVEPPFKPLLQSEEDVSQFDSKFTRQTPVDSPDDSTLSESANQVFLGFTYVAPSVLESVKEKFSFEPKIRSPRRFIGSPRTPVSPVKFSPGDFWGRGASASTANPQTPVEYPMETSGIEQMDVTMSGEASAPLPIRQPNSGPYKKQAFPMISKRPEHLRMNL

[9] = target: Mitogen-activated protein kinase 1 (Homo sapiens, UniProt P28482); assay: Selectivity interaction (KinomeScan (DiscoverX)) EUB0001619a MAPK1; conditions: at 1 µM
Mitogen-activated protein kinase 1, sequence (P28482 whole entry): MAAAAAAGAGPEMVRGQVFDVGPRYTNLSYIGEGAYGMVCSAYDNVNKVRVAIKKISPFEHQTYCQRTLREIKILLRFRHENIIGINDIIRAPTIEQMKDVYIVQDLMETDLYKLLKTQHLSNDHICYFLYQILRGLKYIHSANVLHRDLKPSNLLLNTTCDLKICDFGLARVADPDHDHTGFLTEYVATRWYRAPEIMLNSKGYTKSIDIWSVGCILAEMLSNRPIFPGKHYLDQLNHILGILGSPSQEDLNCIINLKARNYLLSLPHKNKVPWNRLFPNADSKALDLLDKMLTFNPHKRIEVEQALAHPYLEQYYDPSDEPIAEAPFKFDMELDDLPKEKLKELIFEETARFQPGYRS

[10] = target: Protein-tyrosine kinase 6 (Homo sapiens, UniProt Q13882); assay: Selectivity interaction (KinaseProfiler screening (Millipore, enzymatic assay)) EUB0000601a PTK6
[11] = target: T3, Mitogen-activated protein kinase kinase kinase 2 (Homo sapiens) (UniProt Q9Y2U5); assay: Selectivity interaction (ActivX KiNativ screen (kinase selectivity in THP-1 cell lysates)) EUB0000639a MAP3K2; format: subcellular; conditions: lysate, at 0.2 µM
T3 sequence (whole entry): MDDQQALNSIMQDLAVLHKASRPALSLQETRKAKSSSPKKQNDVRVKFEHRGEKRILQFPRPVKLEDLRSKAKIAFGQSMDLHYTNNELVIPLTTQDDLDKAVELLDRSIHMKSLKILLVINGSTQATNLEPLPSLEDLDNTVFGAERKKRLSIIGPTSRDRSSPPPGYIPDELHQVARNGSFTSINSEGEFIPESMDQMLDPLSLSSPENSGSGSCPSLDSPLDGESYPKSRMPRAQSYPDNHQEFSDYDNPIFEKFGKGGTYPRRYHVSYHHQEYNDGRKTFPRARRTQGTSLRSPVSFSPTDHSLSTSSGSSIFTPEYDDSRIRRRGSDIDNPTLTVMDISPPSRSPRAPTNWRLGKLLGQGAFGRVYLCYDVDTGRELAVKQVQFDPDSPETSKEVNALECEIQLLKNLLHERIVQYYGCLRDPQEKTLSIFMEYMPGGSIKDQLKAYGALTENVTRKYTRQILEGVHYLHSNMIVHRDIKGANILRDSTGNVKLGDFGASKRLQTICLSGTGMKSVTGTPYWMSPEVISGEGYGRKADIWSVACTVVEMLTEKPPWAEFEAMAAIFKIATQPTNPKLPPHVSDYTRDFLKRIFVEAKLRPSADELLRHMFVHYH

[12] = target: Vascular endothelial growth factor receptor 2 (Homo sapiens, UniProt P35968); assay: Selectivity interaction (KinomeScan (DiscoverX)) EUB0000092b KDR; conditions: at 10 µM
Vascular endothelial growth factor receptor 2, sequence (P35968 whole entry): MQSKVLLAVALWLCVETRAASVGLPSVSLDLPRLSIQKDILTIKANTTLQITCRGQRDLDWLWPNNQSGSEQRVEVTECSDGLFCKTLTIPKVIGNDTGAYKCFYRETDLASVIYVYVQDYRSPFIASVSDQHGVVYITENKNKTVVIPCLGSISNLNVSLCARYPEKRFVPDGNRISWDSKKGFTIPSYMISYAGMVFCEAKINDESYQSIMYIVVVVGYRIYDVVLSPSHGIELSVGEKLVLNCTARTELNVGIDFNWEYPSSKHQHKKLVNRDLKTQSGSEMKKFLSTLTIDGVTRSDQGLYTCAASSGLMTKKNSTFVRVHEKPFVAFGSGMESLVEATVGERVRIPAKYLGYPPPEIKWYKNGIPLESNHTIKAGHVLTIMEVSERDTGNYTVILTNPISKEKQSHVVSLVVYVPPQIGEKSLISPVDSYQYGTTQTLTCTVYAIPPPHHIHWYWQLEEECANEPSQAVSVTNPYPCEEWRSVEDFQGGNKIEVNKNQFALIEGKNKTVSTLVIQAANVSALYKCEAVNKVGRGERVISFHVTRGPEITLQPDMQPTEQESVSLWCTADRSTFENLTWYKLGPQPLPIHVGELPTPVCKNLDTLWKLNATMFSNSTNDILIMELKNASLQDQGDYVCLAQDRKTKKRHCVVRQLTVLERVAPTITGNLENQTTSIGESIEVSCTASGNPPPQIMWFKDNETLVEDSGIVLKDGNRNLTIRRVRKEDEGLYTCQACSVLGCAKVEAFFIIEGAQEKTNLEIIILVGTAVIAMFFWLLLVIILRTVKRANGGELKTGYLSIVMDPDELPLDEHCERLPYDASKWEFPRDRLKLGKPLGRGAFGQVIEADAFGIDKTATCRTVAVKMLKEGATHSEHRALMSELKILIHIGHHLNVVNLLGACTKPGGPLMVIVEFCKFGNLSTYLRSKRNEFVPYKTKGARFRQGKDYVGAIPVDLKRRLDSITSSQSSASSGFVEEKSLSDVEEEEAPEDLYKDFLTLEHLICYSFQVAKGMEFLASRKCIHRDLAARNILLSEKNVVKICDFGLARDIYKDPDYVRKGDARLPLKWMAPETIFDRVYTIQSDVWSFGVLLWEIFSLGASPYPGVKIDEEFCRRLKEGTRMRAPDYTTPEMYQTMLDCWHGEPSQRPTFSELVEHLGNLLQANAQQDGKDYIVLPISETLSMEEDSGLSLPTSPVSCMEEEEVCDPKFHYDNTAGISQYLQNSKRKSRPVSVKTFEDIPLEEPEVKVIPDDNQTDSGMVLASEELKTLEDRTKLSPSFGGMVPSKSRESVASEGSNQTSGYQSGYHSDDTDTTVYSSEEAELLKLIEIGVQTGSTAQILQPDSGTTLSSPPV

[13] = target: Cyclin-dependent kinase 18 (Homo sapiens) (UniProt Q07002); assay: Selectivity interaction (Ambit KINOMEscan and KiNATiv profiling in Jurkat cells) EUB0000090b CDK18; format: cell-based; conditions: at 1 µM

Ephrin type-A receptor 5 (Homo sapiens), sequence (P54756 whole entry): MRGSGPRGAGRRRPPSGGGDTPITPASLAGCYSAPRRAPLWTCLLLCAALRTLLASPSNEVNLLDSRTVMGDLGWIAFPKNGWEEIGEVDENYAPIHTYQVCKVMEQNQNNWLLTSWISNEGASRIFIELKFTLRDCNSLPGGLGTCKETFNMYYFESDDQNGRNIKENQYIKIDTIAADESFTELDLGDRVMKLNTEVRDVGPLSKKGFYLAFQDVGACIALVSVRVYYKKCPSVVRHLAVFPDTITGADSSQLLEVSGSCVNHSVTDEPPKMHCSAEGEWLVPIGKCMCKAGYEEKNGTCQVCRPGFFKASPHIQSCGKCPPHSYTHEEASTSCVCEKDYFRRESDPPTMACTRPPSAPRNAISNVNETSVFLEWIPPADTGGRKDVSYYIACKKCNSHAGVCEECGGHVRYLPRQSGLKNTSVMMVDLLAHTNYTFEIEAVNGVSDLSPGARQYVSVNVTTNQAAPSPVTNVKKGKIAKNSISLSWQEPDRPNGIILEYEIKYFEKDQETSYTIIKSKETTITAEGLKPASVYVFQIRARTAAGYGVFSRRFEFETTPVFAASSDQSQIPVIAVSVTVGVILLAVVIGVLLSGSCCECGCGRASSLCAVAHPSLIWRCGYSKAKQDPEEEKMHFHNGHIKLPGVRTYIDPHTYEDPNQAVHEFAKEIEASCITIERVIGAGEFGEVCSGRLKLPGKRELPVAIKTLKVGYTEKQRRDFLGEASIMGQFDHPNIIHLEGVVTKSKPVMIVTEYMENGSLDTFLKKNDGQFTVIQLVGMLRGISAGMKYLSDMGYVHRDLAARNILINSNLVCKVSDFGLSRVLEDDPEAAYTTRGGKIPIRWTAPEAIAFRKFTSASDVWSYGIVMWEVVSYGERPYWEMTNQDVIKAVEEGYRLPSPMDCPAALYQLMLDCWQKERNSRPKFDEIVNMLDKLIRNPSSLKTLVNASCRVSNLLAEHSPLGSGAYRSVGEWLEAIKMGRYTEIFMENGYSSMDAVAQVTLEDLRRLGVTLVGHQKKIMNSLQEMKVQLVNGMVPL

Compound: COCC(=O)NC/C=C/c1ccc2ncnc(Nc3ccc(Oc4ccc(C)nc4)c(C)c3)c2c1 [CP-724714]
% of control [1]: 100% | % of control [2]: 100%

Compound: C=CC(=O)Nc1cc(-n2c(=O)ccc3cnc4ccc(-c5ccc(NS(C)(=O)=O)cc5)cc4c32)ccc1C
% of control ([4]; at 1 µM): 100% | % of control ([4]; at 10 µM): 100%

Compound: CCC(=O)N1CC[C@H](Nc2ncnc3c2CN(c2cnc(OC)c(C(F)(F)F)c2)CC3)C1 [LENIOLISIB]
IC50 [6]: > 10 µM

Compound: N#Cc1cccc(-c2c[nH]c3ncnc(N4CCOCC4)c23)c1
% of control [9]: 98%

Compound: CCC(=O)N1CCN(c2ccc(-n3c(=O)ccc4cnc5ccc(-c6cnc7ccccc7c6)cc5c43)cc2C(F)(F)F)CC1
% of control [12]: 65%

Compound: CN(C)C/C=C/C(=O)Nc1ccc(C(=O)N2CCCC(Nc3ncc(Cl)c(-c4c[nH]c5ccccc45)n3)C2)cc1 (stereo not given)
% of control [13]: 59%

Continued, values first:

IC50 [3]: > 10 µM
Compound: CNCCN1CCC(c2cc(CN(C)C(=O)c3cccc(Oc4ccccc4)c3)ccn2)CC1

IC50 [5]: > 10 µM
Compound: Cn1cc(-n2cnc3c(NCc4nc5cc(Cl)c(Cl)cc5[nH]4)nc(N4CCOCC4)nc32)cn1

% of control [7]: 96% | % of control ([8]; at 1 µM): 105% | % of control ([8]; at 5 µM): 87%
Compound: C=CC(=O)Nc1cccc(C(=O)Nc2ccc(Nc3cc(-c4[nH]c(SC)nc4C)ccn3)cc2)c1

IC50 [10]: 0.357 µM
Compound: CCc1cc(Nc2nccc(-c3c(-c4ccc(OC)c(C(=O)Nc5c(F)cccc5F)c4)nc4ccccn34)n2)c(OC)cc1N1CCC(N2CCN(S(C)(=O)=O)CC2)CC1

% of inhibition [11]: -1.4%
Compound: CC[C@@H]1[C@H](F)C(=O)N[C@@H]1COc1nccc2cc(C(N)=O)c(OC)cc12 [ZIMLOVISERTIB]

Source: ChEMBL document CHEMBL5465560, “Selectivity Literature for EUbOPEN Chemogenomic Library” (2024)
